Target: T1, renin (Homo sapiens, UniProt P00797)
T1 construct: This test measures the formation of angiotensin I in human plasma; from tissue; host or cells: human plasma
T1 sequence (P00797 67-406): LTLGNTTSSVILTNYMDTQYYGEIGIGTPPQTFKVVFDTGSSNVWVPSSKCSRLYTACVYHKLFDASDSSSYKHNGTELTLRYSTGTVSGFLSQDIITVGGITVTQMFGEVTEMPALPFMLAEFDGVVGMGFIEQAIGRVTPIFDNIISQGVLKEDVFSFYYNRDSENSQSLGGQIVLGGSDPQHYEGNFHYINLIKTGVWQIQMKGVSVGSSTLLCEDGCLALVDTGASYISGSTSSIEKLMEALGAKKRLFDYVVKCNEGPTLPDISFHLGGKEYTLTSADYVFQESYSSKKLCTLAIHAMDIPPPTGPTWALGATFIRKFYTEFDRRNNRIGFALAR
Assay: formation of angiotensin I in human plasma (Nussberger et al.), radioimmunoassay
Type: biochemical
Conditions: angiotensin I determined by radioimmunoassay, read-out: IC50, inhibition of the formation of angiotensin I
Protocol: The effect of renin inhibitors is detected inter alia experimentally by means of in vitro tests where the reduction in the formation of angiotensin I is measured in various systems (human plasma, purified human renin together with synthetic or natural renin substrate). The following in vitro test of Nussberger et al. (1987) J. Cardiovascular Pharmacol., Vol. 9, pp. 39-44, is used inter alia. This test measures the formation of angiotensin I in human plasma. The amount of angiotensin I formed is determined in a subsequent radioimmunoassay. The effect of inhibitors on the formation of angiotensin I is tested in this system by adding various concentrations of these substances. The IC50 is defined as the concentration of the particular inhibitor which reduces the formation of angiotensin I by 50%. The compounds of the present invention show inhibitory effects in the in vitro systems at minimal concentrations of about 10^−6 mol/l to about 10^−10 mol/l.

COCCCN1CCOc2ccc(CO[C@H]3CN[C@@H](Cc4nncn4C)C[C@@H]3c3ccc(COC[C@@H](C)COC)cc3)cc21 [Example 8, 6-[(3R,4R,6R)-4-[4-((S)-3-Methoxy-2-methyl-propoxymethyl)-phenyl]-6-(4-methyl-4H-[1,2,4]triazol-3-ylmethyl)-piperidin-3-yloxymethyl]-4-(3-methoxy-propyl)-3,4-dihydro-2H-benzo[1,4]oxazine]
IC50: 0.1 to 10 nM

COCCCN1CCOc2ccc(CO[C@H]3CN[C@@H](CN4CCOCC4)C[C@@H]3c3ccc(COC[C@@H](C)COC)cc3)cc21 [Example 10, 6-{(3R,4R,6R)-4-[4-((S)-3-Methoxy-2-methyl-propoxymethyl)-phenyl]-6-morpholin-4-ylmethyl-piperidin-3-yloxymethyl}-4-(3-methoxy-propyl)-3,4-dihydro-2H-benzo[1,4]oxazine]
IC50: 0.1 to 10 nM

Source: patent US8022068B2, “Substituted piperidines as renin inhibitors” (Novartis AG, priority 2008, dated 2011)
